Assay results taken from US20200282052A1, “A COMBINATION THERAPY WITH APATINIB FOR THE TREATMENT OF CANCER” (Elevar Therapeutics, Inc., priority 2017, published 2020).
Structures can show the parent of a compound that is named as a salt.

Columns and labels:
[1] = in vivo; cited from earlier work
[2] = system: tumor bearing animal models; settings: cited from earlier work
[3] = system: advanced or metastatic gastric cancer; settings: cited from earlier work
[4] = healthy volunteers, cited from earlier work
VEGFR-2 = VEGFR-2 (Homo sapiens, UniProt P35968); settings: nonclinical studies; cited from earlier work
[5] = system: mouse LL/2 lung carcinoma; experiment: LL/2 lung carcinoma syngeneic mouse model; type: in vivo; settings: day 20; apatinib mesylate 300 mg/kg p.o. q.d., anti-muPD-1 antibody 10 mg/kg i.p. b.i.w.; C57BL/6 mice
Procedure: 40 female C57BL/6 mice purchased from Jackson Laboratories were enrolled on the study. Animals were housed for stabilization period. Animals were housed in individual HEPA ventilated cages (Innocage® IVC, Innovive USA). Fluorescent lighting was provided on a 12-hour cycle. Temperature and humidity was monitored and recorded daily and maintained to the maximum extent possible between 68-74° F. (20-23° C.) and 30-70% humidity, respectively. 2920×.10 18% soy irradiated rodent feed (Harlan) and autoclaved acidified water (pH 2.5-3) was provided ad libitum.
For inoculation, LL/2 cell viability was at 98%. Cryo vials containing LL/2 cells were thawed and prepared for injection into mice. On study day −3 cells were washed in PBS, counted, and re-suspended in cold PBS at concentrations of 250,000 viable cells/100 μL. Cell suspensions were mixed with PBS and kept on ice during transport to the vivarium. Cells for injections were prepared by withdrawing the PBS-cell mixture into a chilled 1 mL Lure-lok syringe fitted with a 26 7/8 G (0.5 mm×22 mm) needle. […]
Animals were monitored weekly for palpable tumors, or any changes in appearance or behavior. Once tumors were palpable, they were measured 3 times a week using calipers. Tumor volume was calculated using the following equation (longest diameter×shortest diameter 2)/2.
Body weight was measured at least three times a week. […]

c-SRC = c-SRC (Homo sapiens, UniProt P12931); settings: cited from earlier work
c-Kit = c-Kit (Homo sapiens, UniProt P10721); settings: cited from earlier work
[6] = single dose, cited from earlier work

c-Kit, sequence (P10721 26-976): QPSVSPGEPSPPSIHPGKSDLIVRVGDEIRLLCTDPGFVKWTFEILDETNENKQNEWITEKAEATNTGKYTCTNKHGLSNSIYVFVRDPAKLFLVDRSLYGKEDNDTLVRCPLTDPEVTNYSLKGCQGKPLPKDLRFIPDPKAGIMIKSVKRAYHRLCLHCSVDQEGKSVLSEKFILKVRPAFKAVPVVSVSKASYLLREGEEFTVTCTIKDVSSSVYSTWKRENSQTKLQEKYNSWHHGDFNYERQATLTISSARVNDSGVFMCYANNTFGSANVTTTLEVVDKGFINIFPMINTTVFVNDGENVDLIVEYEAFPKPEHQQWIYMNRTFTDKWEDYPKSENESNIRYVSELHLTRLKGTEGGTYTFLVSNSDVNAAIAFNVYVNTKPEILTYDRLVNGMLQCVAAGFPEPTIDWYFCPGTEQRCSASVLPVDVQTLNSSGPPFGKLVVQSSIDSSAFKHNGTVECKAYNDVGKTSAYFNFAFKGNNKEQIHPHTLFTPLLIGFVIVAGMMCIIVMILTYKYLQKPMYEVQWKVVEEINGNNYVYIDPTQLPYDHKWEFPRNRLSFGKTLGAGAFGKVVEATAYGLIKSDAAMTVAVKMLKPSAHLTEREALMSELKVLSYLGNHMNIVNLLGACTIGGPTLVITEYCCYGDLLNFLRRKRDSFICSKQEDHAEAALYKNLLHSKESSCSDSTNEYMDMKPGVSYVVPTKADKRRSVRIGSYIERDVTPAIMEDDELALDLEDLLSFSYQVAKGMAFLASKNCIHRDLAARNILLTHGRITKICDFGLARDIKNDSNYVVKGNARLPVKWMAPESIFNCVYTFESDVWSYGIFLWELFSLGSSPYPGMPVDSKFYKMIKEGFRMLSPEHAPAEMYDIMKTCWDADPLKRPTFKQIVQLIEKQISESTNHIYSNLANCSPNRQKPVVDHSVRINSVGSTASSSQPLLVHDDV
VEGFR-2, sequence (P35968 20-1356, species assumed): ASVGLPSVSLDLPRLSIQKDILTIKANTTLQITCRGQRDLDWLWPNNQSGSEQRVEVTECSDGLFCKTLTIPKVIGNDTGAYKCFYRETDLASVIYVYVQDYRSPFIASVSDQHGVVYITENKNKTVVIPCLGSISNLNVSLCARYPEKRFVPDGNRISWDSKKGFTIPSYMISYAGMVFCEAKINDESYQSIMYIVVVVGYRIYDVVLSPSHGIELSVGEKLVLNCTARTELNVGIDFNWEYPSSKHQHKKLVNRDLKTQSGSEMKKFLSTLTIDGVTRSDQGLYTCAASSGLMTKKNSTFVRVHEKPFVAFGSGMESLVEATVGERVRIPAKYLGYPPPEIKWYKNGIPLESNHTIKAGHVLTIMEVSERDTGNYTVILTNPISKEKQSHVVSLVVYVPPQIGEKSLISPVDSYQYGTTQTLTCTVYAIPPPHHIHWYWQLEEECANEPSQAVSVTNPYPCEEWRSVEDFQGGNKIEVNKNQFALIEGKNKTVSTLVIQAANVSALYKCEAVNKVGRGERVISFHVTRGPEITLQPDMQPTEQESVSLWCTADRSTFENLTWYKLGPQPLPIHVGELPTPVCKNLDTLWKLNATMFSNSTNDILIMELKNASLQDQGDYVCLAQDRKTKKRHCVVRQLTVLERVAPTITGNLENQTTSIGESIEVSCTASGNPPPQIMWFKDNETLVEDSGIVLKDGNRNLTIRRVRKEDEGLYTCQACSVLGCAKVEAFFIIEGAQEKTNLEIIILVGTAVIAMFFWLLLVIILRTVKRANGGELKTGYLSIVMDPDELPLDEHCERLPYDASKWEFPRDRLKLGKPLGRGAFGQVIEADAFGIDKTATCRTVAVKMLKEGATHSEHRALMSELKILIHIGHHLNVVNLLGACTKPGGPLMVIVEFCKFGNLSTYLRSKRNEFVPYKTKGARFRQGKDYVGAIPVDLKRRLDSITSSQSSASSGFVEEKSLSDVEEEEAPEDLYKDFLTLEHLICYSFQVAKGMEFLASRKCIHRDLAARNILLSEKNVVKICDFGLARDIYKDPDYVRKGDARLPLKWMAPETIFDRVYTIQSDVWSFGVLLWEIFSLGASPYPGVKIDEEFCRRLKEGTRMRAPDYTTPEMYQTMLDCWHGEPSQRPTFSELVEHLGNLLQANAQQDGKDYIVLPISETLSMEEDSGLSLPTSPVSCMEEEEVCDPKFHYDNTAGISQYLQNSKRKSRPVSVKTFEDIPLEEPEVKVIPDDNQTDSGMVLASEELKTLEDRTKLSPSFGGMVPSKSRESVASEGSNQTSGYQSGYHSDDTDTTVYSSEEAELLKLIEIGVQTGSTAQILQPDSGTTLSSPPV
c-SRC, sequence (P12931 whole entry, species assumed): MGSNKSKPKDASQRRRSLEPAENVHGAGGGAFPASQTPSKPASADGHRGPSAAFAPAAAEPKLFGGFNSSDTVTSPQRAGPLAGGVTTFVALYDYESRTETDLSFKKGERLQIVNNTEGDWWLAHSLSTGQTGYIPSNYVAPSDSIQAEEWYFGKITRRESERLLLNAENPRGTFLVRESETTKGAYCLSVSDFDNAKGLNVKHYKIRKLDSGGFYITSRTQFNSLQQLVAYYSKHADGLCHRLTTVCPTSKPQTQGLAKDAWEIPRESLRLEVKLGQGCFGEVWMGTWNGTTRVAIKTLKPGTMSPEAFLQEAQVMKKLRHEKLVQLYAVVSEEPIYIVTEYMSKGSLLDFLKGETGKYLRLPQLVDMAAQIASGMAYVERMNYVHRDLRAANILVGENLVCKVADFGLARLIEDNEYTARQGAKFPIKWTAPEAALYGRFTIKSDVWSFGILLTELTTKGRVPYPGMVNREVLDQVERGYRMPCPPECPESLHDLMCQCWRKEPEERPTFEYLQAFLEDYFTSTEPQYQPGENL

Row | Structure (SMILES) | Safety Profile: Central nervous system [1] | Safety Profile: Liver/Bile [1] | Safety Profile: Musculoskeletal/bone [1] | Safety Profile: Renal [1] | Safety Profile: Heart [1] | also measured
1 | Cc1nc(Nc2ncc(C(=O)Nc3c(C)cccc3Cl)s2)cc(N2CCN(CCO)CC2)n1 [Dasatinib] | R | R | R | R |  | 
2 | C#Cc1cccc(Nc2ncnc3cc(OCCOC)c(OCCOC)cc23)c1 [Erlotinib] | R | R |  |  |  | Safety Profile: Blood/lymph system [1]: R
3 | CS(=O)(=O)CCNCc1ccc(-c2ccc3ncnc(Nc4ccc(OCc5cccc(F)c5)c(Cl)c4)c3c2)o1 [Lapatinib] | R |  |  |  | R | 
4 | Cc1cn(-c2cc(NC(=O)c3ccc(C)c(Nc4nccc(-c5cccnc5)n4)c3)cc(C(F)(F)F)c2)cn1 [Nilotinib] | R |  | R | R |  | Safety Profile: GI [1]: R; Safety Profile: Vascular [1]: R
5 | Cc1ccc(Nc2nccc(N(C)c3ccc4c(C)n(C)nc4c3)n2)cc1S(N)(=O)=O [Pazopanib] |  |  |  |  | R | 
6 | N#CC1(c2ccc(NC(=O)c3cccnc3NCc3ccncc3)cc2)CCCC1 [Rivoceranib, N-[4-(1-cyanocyclopentyl)phenyl]-2-{[(pyridin-4-yl)methyl]amino} pyridine-3-carboxamide] |  |  |  |  |  | side effects in animals ([2]; at efficacious doses): minimal side effects; efficacy in various tumor bearing animal models ([2]; nonclinical studies): efficacious; median overall survival (OS) compared to placebo ([3]; Phase 3): prolonged; median progression-free survival (PFS) compared to placebo ([3]; Phase 3): prolonged; patients with Grade ¾ adverse reactions ([3]; hypertension, HFS, proteinuria, fatigue, anorexia, and elevated aminotransferase): more than 2%; food effects on the bioavailability ([4]; 81 mg rivoceranib dose): minimal; increase in bioavailability with food ([4]; 201 mg dose): 20-30%; binding to VEGFR-2 (VEGFR-2): selectively binds; % Tumor growth inhibition [5]: 37%; inhibition of c-SRC tyrosine kinase (c-SRC): mildly inhibits; inhibition of c-Kit tyrosine kinase (c-Kit): mildly inhibits
7 | CNC(=O)c1cc(Oc2ccc(NC(=O)Nc3ccc(Cl)c(C(F)(F)F)c3)cc2)ccn1 [Sorafenib] | R | R | R | R | R | Safety Profile: GI [1]: R; Safety Profile: Lung airways [1]: R
8 | CCN(CC)CCNC(=O)c1c(C)[nH]c(/C=C2\C(=O)Nc3ccc(F)cc32)c1C [Sunitinib] | R | R |  |  | R | 
9 | N#CC1(c2ccc(NC(=O)c3cccnc3NCc3ccncc3)cc2)CCCC1 [rivoceranib mesylate] |  |  |  |  |  | AUC0-∞ in Chinese and Japanese subjects compared to Caucasian subjects ([6]; healthy male): slightly higher; Cmax in Chinese and Japanese subjects compared to Caucasian subjects ([6]; healthy male): slightly higher; t1/2 ([6]; similar amongst Caucasian, Japanese and Chinese groups): 7.5 to 8 h
